Read-outs that look alike come from different tables or passages of the source.
Columns and labels:
[1] = test system: MV4-11 cells; experiment: Leukemia cell proliferation inhibition test (ATPlite), MV4-11; format: cell-based; details: Homo sapiens, read-out: MV4-11 cell proliferation inhibition effect
How it was run: (§1)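 Molm-13 or MV4-11 cells in RPMI with 10% FBS and pen/strep, seeded at 10,000 cells per well, were exposed to serially diluted compound for 72 hours at 37° C, 5% CO2. Total cellular ATP was read by luciferase luminescence. GI50 came from sigmoid fits against the 0.1% DMSO control, in duplicate.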

[2] = molecular target: T1, human FLT3 protein (FLT3 (WT)) (Homo sapiens, UniProt P36888); experiment: FLT3 inhibition test (FLT3 enzyme inhibition, time-resolved fluorescence of substrate peptide phosphorylation); format: biochemical; details: read-out: FLT3 (WT) enzyme inhibition activity
T1 construct: human FLT3 protein (intracellular region, 564 to 993 aa); GST; purchased Carna Biosciences; host or cells: baculovirus expression system
T1 sequence (P36888 564-993): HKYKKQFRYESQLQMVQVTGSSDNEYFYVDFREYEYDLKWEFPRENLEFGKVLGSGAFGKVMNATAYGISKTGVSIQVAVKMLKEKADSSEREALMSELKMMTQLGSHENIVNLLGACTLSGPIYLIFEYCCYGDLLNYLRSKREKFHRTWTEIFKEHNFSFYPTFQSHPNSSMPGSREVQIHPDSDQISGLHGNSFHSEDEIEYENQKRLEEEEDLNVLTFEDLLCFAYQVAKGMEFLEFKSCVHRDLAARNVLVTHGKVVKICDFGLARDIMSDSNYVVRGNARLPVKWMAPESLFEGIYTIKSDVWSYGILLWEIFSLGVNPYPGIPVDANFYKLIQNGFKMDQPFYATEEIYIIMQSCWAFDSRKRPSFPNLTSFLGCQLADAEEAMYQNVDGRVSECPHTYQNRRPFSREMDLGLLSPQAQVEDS
How it was run: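 Substrate peptide phosphorylation detected by time-resolved fluorescence after a 30 min kinase reaction at 25° C with 50 μM ATP (final). Beforehand, compound and FLT3 (WT, 1.2 μg) stood 15 min at 25° C in HEPES buffer pH 7.5 containing MgCl2, NaCl, BSA and DTT.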

[3] = test system: Molm-13 cells; experiment: Leukemia cell proliferation inhibition test (ATPlite), Molm-13; format: cell-based; details: Homo sapiens, read-out: MOLM13 cell proliferation inhibition effect
How it was run: as §1

[4] = MV4-11, 72 h, MV4-11, 72 hours culture, ATPlite, GI50 per method
[5] = GST-fused human FLT3 (564 to 993 aa), ATP 50 μM
[6] = MOLM-13, 72 h, Molm-13, 72 hours culture, ATPlite, GI50 per method

IC50 [1, 4] [nM]	IC50 [2, 5] [nM]	IC50 [3, 6] [nM]	IC50 ([1]; MV4-11, MV4-11 cell) [nM]	IC50 ([2]; FLT3 (WT)) [nM]	IC50 ([3]; MOLM-13, MOLM13 cell) [nM]	Structure (SMILES)
10 to 100	< 10	10 to 100	–	–	–	CCCNc1nc(Nc2ccc(C(N)=O)cc2)ncc1C#Cc1ccc(NC(=O)CNC(=O)/C=C/CN(C)C)cc1 [Compound 8-4]
< 10	< 10	10 to 100	–	–	–	COCCCNc1nc(Nc2ccc(F)nc2)ncc1C#CCCCNC(=O)[C@H](C)N(C)C(=O)/C=C/CN(C)C [Compound 10-30]
10 to 100	< 10	100 to 1000	–	–	–	CCCNc1nc(Nc2ccc(C(N)=O)cc2)ncc1C(=O)Nc1cccc(NC(=O)[C@H](C)N(C)C(=O)/C=C/C(CC)N(C)C)c1 (stereo partly drawn) [Compound 4-15]
–	–	–	10 to 100	< 10	< 10	CCCNc1nc(Nc2ccc3c(OC)nn(COCC)c3c2)ncc1C#CCCCNC(=O)[C@H](C)N(C)C(=O)/C=C/CN(C)C [Compound 22-50]
–	–	–	< 10	< 10	< 10	CCCNc1nc(Nc2cnc3[nH]nc(OC)c3c2)ncc1C#CCCCNC(=O)[C@@H]1CCCN1C(=O)/C=C/CN(C)C [Compound 22-57, (S,E)-1-(4-(Dimethylamino)-2-butenoyl)-N-(5-(2-((3-methoxy-1H-pyrazolo[3,4-b]pyridin-5-yl)amino)-4-(propylamino)pyrimidin-5-yl)-4-pentyn-1-yl)pyrrolidine-2-carboxamide]
< 10	< 10	< 10	–	–	–	CCCNc1nc(Nc2ccc(F)cc2)ncc1C#CCCCNC(=O)[C@H](C)N(C)C(=O)/C=C/CN(C)C [Compound 12-3]
10 to 100	10 to 100	100 to 1000	–	–	–	CCCNc1nc(Nc2ccc(OC(F)(F)F)cc2)ncc1C#CCCCNC(=O)[C@H](C)N(C)C(=O)/C=C/CN(C)C [Compound 12-6]
100 to 1000	10 to 100	100 to 1000	–	–	–	C=CC(=O)NCCNC(=O)c1cnc(NCCc2ccncc2)nc1NCCC [Compound 2-17]
< 10	< 10	< 10	–	–	–	COCCCNc1nc(Nc2cccc(F)c2)ncc1C#C[C@H]1C[C@@H](NC(=O)[C@H](C)N(C)C(=O)/C=C/CN(C)C)C1 [Compound 15-15, (E)-4-(Dimethylamino)-N—((S)-1-(((1S,3R)-3-((2-((3-fluorophenyl)amino)-4-((3-methoxypropyl)amino)pyrimidin-5-yl)ethynyl)cyclobutyl)amino)-1-oxopropan-2-yl)-N-methyl-2-butenamide]
< 10	< 10	10 to 100	–	–	–	C[C@@H](C(=O)NCCCC#Cc1cnc(Nc2ccc(F)cc2)nc1N1CCCCC1)N(C)C(=O)/C=C/CN(C)C [Compound 10-38]
100 to 1000	10 to 100	100 to 1000	–	–	–	C=CC(=O)Nc1cccc(CNC(=O)c2cnc(NCCc3ccncc3)nc2NCCC)c1 [Compound 2-26]
< 10	< 10	< 10	–	–	–	CCCNc1nc(Nc2ccc(C#N)cc2)ncc1C#CCCCNC(=O)[C@@H]1C[C@@H](OC)CN1C(=O)/C=C/CN(C)C [Compound 7-60]
< 10	< 10	< 10	–	–	–	CCCNc1nc(Nc2ccc(C(N)=O)cc2)ncc1C(=O)NC1CCCC(NC(=O)CN(C)C(=O)/C=C/CN(C)C)C1 (stereo not drawn) [Compound 3-4, (E)-2-((4-Carbamoylphenyl)amino)-N-(3-(2-(4-(dimethylamino)-N-methyl-2-butenamido)actamido)cyclohexyl)-4-(propylamino)pyrimidine-5-carboxamide]
< 10	< 10	< 10	–	–	–	COc1ccc(Nc2nc(Nc3ccc(F)nc3)ncc2C#CCCCNC(=O)[C@H](C)N(C)C(=O)/C=C/CN(C)C)cc1 [Compound 7-22]
–	–	–	10 to 100	< 10	10 to 100	CCCNc1nc(NC)ncc1C#C[C@@H]1CCC[C@H](NC(=O)[C@H](C)N(C)C(=O)/C=C/CN(C)C)C1 [Compound 21-35]
–	–	–	10 to 100	< 10	10 to 100	CCCNc1nc(Nc2ccc3c(OC)nn(C)c3c2)ncc1C#CCCCNC(=O)[C@H](C)N(C)C(=O)/C=C/CN(C)C [Compound 22-26]

IC50 [1, 4] [nM]	IC50 [2, 5] [nM]	IC50 [3, 6] [nM]	IC50 ([1]; MV4-11, MV4-11 cell) [nM]	IC50 ([2]; FLT3 (WT)) [nM]	IC50 ([3]; MOLM-13, MOLM13 cell) [nM]	Structure (SMILES)
10 to 100	< 10	10 to 100	–	–	–	C[C@@H](C(=O)NCCCC#Cc1cnc(Nc2ccc(F)nc2)nc1N1CCOCC1)N(C)C(=O)/C=C/CN(C)C [Compound 11-9]
< 10	< 10	< 10	–	–	–	CCNc1nc(Nc2ccc(C#N)cc2)ncc1C#C[C@@H]1CCC[C@H](NC(=O)[C@H](C)N(C)C(=O)/C=C/CN(C)C)C1 [Compound 21-28]
< 10	< 10	< 10	–	–	–	CCCN(C)c1nc(Nc2ccc(C(N)=O)cc2)ncc1C#CCCCNC(=O)[C@H](C)N(C)C(=O)/C=C/CN(C)C [Compound 9-6]
100 to 1000	< 10	100 to 1000	–	–	–	CCCNc1nc(Nc2ccc(C(N)=O)cc2)ncc1-c1ccc(CCNC(=O)CNC(=O)/C=C/CN(C)C)cc1 [Compound 16-3]
–	–	–	< 10	< 10	< 10	CCCNc1nc(Nc2ccc3ncsc3c2)ncc1C#CCCCNC(=O)[C@H](C)N(C)C(=O)/C=C/CN(C)C [Compound 22-6, (S,E)-N-(1-((5-(2-(Benzo[d]thiazol-6-ylamino)-4-(propylamino)pyrimidin-5-yl)-4-pentyn-1-yl)amino)-1-oxopropan-2-yl)-4-(dimethylamino)-N-methyl-2-butenamide]
< 10	< 10	< 10	–	–	–	CCCNc1nc(NCCc2ccncc2)ncc1C(=O)Nc1cccc(NC(=O)CNC(=O)/C=C/CN(C)C)c1 [Compound 2-9]
< 10	< 10	< 10	–	–	–	CNc1nc(Nc2ccc(F)cc2)ncc1C#CCCCNC(=O)[C@@H]1C[C@@H](OC)CN1C(=O)/C=C/CN(C)C [Compound 7-83, (2S,4R)-1-((E)-4-(Dimethylamino)-2-butenoyl)-N-(5-(2-((4-fluorophenyl)amino)-4-(methylamino)pyrimidin-5-yl)-4-pentyn-1-yl)-4-methoxypyrrolidine-2-carboxamide]
–	–	–	< 10	< 10	< 10	CCCNc1nc(Nc2ccc(-n3ccnn3)cc2)ncc1C#CCCCNC(=O)[C@H](C)N(C)C(=O)/C=C/CN(C)C [Compound 22-17]
10 to 100	< 10	10 to 100	–	–	–	CCCNc1nc(Nc2cccc(C(F)(F)F)c2)ncc1C#CCCCNC(=O)[C@H](C)N(C)C(=O)/C=C/CN(C)C [Compound 11-11]
< 10	< 10	< 10	–	–	–	COCCCNc1nc(Nc2ccnc(OC)c2)ncc1C#CCCCNC(=O)[C@@H]1C[C@H](F)CN1C(=O)/C=C/CN(C)C [Compound 9-34, (2S,4S)-1-((E)-4-(Dimethylamino)-2-butenoyl)-4-fluoro-N-(5-(4-((3-methoxypropyl)amino)-2-((methoxypyridin-4-yl)amino)pyrimidin-5-yl)-4-pentyn-1-yl)pyrrolidine-2-carboxamide]
< 10	< 10	10 to 100	–	–	–	CC(C)c1ccc(Nc2nc(Nc3cccc(F)c3)ncc2C#CCCCNC(=O)[C@H](C)N(C)C(=O)/C=C/CN(C)C)cc1 [Compound 10-12]
< 10	< 10	< 10	–	–	–	CC(C)Oc1nc(Nc2ccc(C#N)cc2)ncc1C#C[C@@H]1CCC[C@H](NC(=O)[C@H](C)N(C)C(=O)/C=C/CN(C)C)C1 [Compound 21-22]
< 10	< 10	10 to 100	–	–	–	C[C@@H](C(=O)NCCCC#Cc1cnc(Nc2cccc(F)c2)nc1NCCC#N)N(C)C(=O)/C=C/CN(C)C [Compound 10-8]
< 10	< 10	< 10	–	–	–	CCCNc1nc(Nc2ccc3nnccc3c2)ncc1C(=O)NCCCNC(=O)[C@H](C)N(C)C(=O)/C=C/CN(C)C [Compound 6-10B]
10 to 100	< 10	100 to 1000	–	–	–	CCCNc1nc(Nc2ccccc2F)ncc1C#CCCCNC(=O)[C@H](C)N(C)C(=O)/C=C/CN(C)C [Compound 12-10]
< 10	< 10	< 10	–	–	–	CCCNc1nc(Nc2ccc(C(N)=O)cc2)ncc1C(=O)NCCCNC(=O)[C@H](C)N(C)C(=O)/C=C/CN(C)C [Compound 5-1, (S,E)-2-((4-carbamoylphenyl)amino)-N-(3-(2-(4-(dimethylamino)-N-methyl-2-butenamido)propaneamido)propyl)-4-(propylamino)pyrimidine-5-carboxamide]
